Reference: patent US20230048132A1, “CYCLIN-DEPENDENT KINASE INHIBITORS” (SPV THERAPEUTICS INC., priority 2018, published 2023)

Columns and labels:
Assay in all cases: 2D cell proliferation assay (CellTiter-Blue)
Type in all cases: cell-based
[1] = tested on: MAXFHER SK-BR-3; settings: Homo sapiens, 72 h, three days of treatment, read-out: abs. IC50
Method: (§1) Viability of the cells was analyzed by using the CellTiter-Blue® Cell Viability Assay (Promega), and was performed according to manufacturer's instructions. Briefly, cells were harvested from exponential phase cultures (Chapter 6.6), counted and plated in 96-well flat-bottom microtiter plates at a cell density of 4,000-60,000 cells/well in a volume of 140 μl per well. After a 24 hours recovery period, 10 μL cell culture medium (six control wells/plate) or culture medium with test compound were added (Chapter 6.2). The compounds were applied at five concentrations in full-log increments up to 100 μM in duplicate. Cultures were incubated at 37° C. and 5% CO2 in a humidified atmosphere for another three days. After three days of treatment, 20 μl/well CellTiter-Blue® reagent was added. Following incubation with CellTiter-Blue® reagent for up to four hours, fluorescence (FU) was measured by using the Enspire Multimode Plate Reader (excitation λ=570 nm, emission λ=600 nm). For calculations, the mean values of duplicate/sextuplicate (untreated control) data were used.
(§2) An assay was considered fully evaluable if the following quality control criteria were fulfilled: • control/background ratio>3.0-Z′-factor calculated within the assay plate>0.5 [7]—coefficient of variation in the growth control wells <30%
(§3) Drug effects were expressed in terms of the percentage of the fluorescence signal, obtained by comparison of the mean signal in the treated wells with the mean signal of the untreated controls (expressed by the test-versus-control value, T/C-value [%]):
(§4) IC values are reported as relative IC50 values and absolute IC50 and IC70 values. […] The absolute IC70 value gives the concentration of the test compound that achieves T/C=30%. The relative IC50 value is the concentration of test compound that gives a response halfway between the top and bottom plateau of the sigmoidal concentration-response curve (inflection point of the curve). Calculation was done by 4parameter non-linear curve fit (Oncotest Data Warehouse Software).
(§5) If an IC50 or IC70 value could not be determined within the examined dose range (because a compound was either too active or lacked activity), the lowest or highest concentration studied was used for calculation of the geometric mean value.

[2] = tested on: LEXFCL MEC-1; settings: Homo sapiens, MEC1, 72 h, three days of treatment, read-out: abs. IC50
Method: as §1, §2, §3, §4, §5

[3] = tested on: MAXFTN MDA-MB-468 (ER−); settings: Homo sapiens, 72 h, three days of treatment, read-out: abs. IC50
Method: as §1, §2, §3, §4, §5

[4] = tested on: MEXF MDA-MB-435; settings: Homo sapiens, 72 h, three days of treatment, read-out: abs. IC50
Method: as §1, §2, §3, §4, §5

[5] = tested on: CXF HCT-15; settings: Homo sapiens, 72 h, three days of treatment, read-out: abs. IC50
Method: as §1, §2, §3, §4, §5

[6] = tested on: PRXF DU-145; settings: Homo sapiens, 72 h, three days of treatment, read-out: abs. IC50
Method: as §1, §2, §3, §4, §5

[7] = tested on: LXFA NCl-H1975; settings: 72 h, three days of treatment, read-out: abs. IC50
Method: as §1, §2, §3, §4, §5

[8] = tested on: MEXF WM-266-4; settings: Homo sapiens, 72 h, three days of treatment, read-out: abs. IC50
Method: as §1, §2, §3, §4, §5

[9] = tested on: GXA MKN45; settings: Homo sapiens, MKN-45, 72 h, three days of treatment, read-out: abs. IC50
Method: as §1, §2, §3, §4, §5

[10] = tested on: LIXAH SNU-398; settings: Homo sapiens, 72 h, three days of treatment, read-out: abs. IC50
Method: as §1, §2, §3, §4, §5

[11] = tested on: LXFL NCl-H1299; settings: 72 h, three days of treatment, read-out: abs. IC50
Method: as §1, §2, §3, §4, §5

[12] = tested on: CXF Caco-2; settings: Homo sapiens, 72 h, three days of treatment, read-out: abs. IC50
Method: as §1, §2, §3, §4, §5

[13] = tested on: UXF MFE-319; settings: 72 h, three days of treatment, read-out: abs. IC50
Method: as §1, §2, §3, §4, §5

[14] = tested on: LXFA A549; settings: Homo sapiens, 72 h, three days of treatment, read-out: abs. IC50
Method: as §1, §2, §3, §4, §5

[15] = tested on: CXF COLO 205; settings: Homo sapiens, 72 h, three days of treatment, read-out: abs. IC50
Method: as §1, §2, §3, §4, §5

[16] = tested on: LYXFNH U-937; settings: Homo sapiens, 72 h, three days of treatment, read-out: abs. IC50
Method: as §1, §2, §3, §4, §5

[17] = tested on: LXFL NCl-H460; settings: 72 h, three days of treatment, read-out: abs. IC50
Method: as §1, §2, §3, §4, §5

[18] = tested on: LEXFCM K-562; settings: Homo sapiens, K562, 72 h, three days of treatment, read-out: abs. IC50
Method: as §1, §2, §3, §4, §5

[19] = tested on: OVXF SK-OV-3; settings: Homo sapiens, 72 h, three days of treatment, read-out: abs. IC50
Method: as §1, §2, §3, §4, §5

[20] = tested on: MEXF M14; settings: 72 h, three days of treatment, read-out: abs. IC50
Method: as §1, §2, §3, §4, §5

[21] = tested on: PRXF 22Rv1; settings: Homo sapiens, 72 h, three days of treatment, read-out: abs. IC50
Method: as §1, §2, §3, §4, §5

[22] = tested on: MEXF A-375; settings: Homo sapiens, 72 h, three days of treatment, read-out: abs. IC50
Method: as §1, §2, §3, §4, §5

[23] = tested on: MEXF A2058; settings: Homo sapiens, 72 h, three days of treatment, read-out: abs. IC50
Method: as §1, §2, §3, §4, §5

[24] = tested on: UXF EFE-184; settings: Homo sapiens, 72 h, three days of treatment, read-out: abs. IC50
Method: as §1, §2, §3, §4, §5

[25] = tested on: PAXF BxPC-3; settings: Homo sapiens, 72 h, three days of treatment, read-out: abs. IC50
Method: as §1, §2, §3, §4, §5

[26] = tested on: LIXFH Hep G2; settings: Homo sapiens, HepG2, 72 h, three days of treatment, read-out: abs. IC50
Method: as §1, §2, §3, §4, §5

[27] = tested on: PRXF VCap; settings: Homo sapiens, 72 h, three days of treatment, read-out: abs. IC50
Method: as §1, §2, §3, §4, §5

[28] = tested on: MAXFTN BT-549; settings: Homo sapiens, 72 h, three days of treatment, read-out: abs. IC50
Method: as §1, §2, §3, §4, §5

[29] = tested on: CXF HT-29; settings: Homo sapiens, 72 h, three days of treatment, read-out: abs. IC50
Method: as §1, §2, §3, §4, §5

[30] = tested on: LEXFAM MV4-11; settings: Homo sapiens, 72 h, three days of treatment, read-out: abs. IC50
Method: as §1, §2, §3, §4, §5

[31] = tested on: MMXF U-266; settings: Homo sapiens, 72 h, three days of treatment, read-out: abs. IC50
Method: as §1, §2, §3, §4, §5

[32] = tested on: PRXF LNCaP; settings: Homo sapiens, 72 h, three days of treatment, read-out: abs. IC50
Method: as §1, §2, §3, §4, §5

[33] = tested on: CEXF HeLa; settings: Homo sapiens, 72 h, three days of treatment, read-out: abs. IC50
Method: as §1, §2, §3, §4, §5

Compound	IC50 [1]	IC50 [2]	IC50 [3]	IC50 [4]	IC50 [5]	IC50 [6]	IC50 [7]	IC50 [8]	IC50 [9]	IC50 [10]	IC50 [11]	IC50 [12]	IC50 [13]	IC50 [14]	IC50 [15]	IC50 [16]	IC50 [17]	IC50 [18]	IC50 [19]	IC50 [20]	other results
CC(C)N1CCN(c2ccc(Nc3ncc4c(n3)N(C3CCCC3)C(=O)[C@]3(CCNC3=O)C4)nc2)CC1 [Example D154, (S)-8-cyclopentyl-2-((5-(4-isopropylpiperazin-1-yl)pyridin-2-yl)amino)-5,8-dihydro-7H-spiro[pyrido[2,3-d]pyrimidine-6,3′-pyrrolidine]-2′,7-dione]	13800 nM	9700 nM	72900 nM	16000 nM	22100 nM	30600 nM	26300 nM	81300 nM	47800 nM	6840 nM	37300 nM	≥ 100000 nM	5430 nM	79200 nM	4760 nM	≤ 10 nM	35300 nM	84400 nM	59900 nM	21400 nM	IC50 [21]: 1420 nM; IC50 [22]: 254 nM; IC50 [23]: 14500 nM; IC50 [24]: 34600 nM; IC50 [25]: 2870 nM; IC50 [26]: 8140 nM; IC50 [27]: 25400 nM; IC50 [28]: 19600 nM; IC50 [29]: 29900 nM; IC50 [30]: ≤ 10 nM; IC50 [31]: 78500 nM; IC50 [32]: 31100 nM; IC50 [33]: 72600 nM
CN(C)CCOc1ccc(Nc2ncc3c(n2)N(C2CCCC2)C(=O)[C@]2(CCNC2=O)C3)cc1 [Example D179, (S)-8-cyclopentyl-2-((4-(2-(dimethylamino)ethoxy)phenyl)amino)-5,8-dihydro-7H-spiro[pyrido[2,3-d]pyrimidine-6,3′-pyrrolidine]-2′,7-dione]	328 nM	447 nM	681 nM	102 nM	1410 nM	47 nM	29 nM	272 nM	112 nM	25 nM	353 nM	≥ 100000 nM	144 nM	3310 nM	101 nM	≤ 10 nM	274 nM	355 nM	772 nM	268 nM	IC50 [21]: 21 nM; IC50 [22]: 61 nM; IC50 [23]: 174 nM; IC50 [24]: 244 nM; IC50 [25]: 116 nM; IC50 [26]: 37 nM; IC50 [27]: 37 nM; IC50 [28]: 252 nM; IC50 [29]: 562 nM; IC50 [30]: ≤ 10 nM; IC50 [31]: 814 nM; IC50 [32]: 24 nM; IC50 [33]: 268 nM
O=C1NCC[C@@]12Cc1cnc(Nc3ccc(N4CCNCC4)cc3F)nc1N(C1CCCC1)C2=O [Example D146, (S)-8-cyclopentyl-2-((2-fluoro-4-(piperazin-1-yl)phenyl)amino)-5,8-dihydro-7H-spiro[pyrido[2,3-d]pyrimidine-6,3′-pyrrolidine]-2′,7-dione]	1020 nM	142 nM	925 nM	875 nM	2050 nM	544 nM	356 nM	6220 nM	3120 nM	251 nM	8900 nM	23000 nM	1140 nM	3400 nM	577 nM	≤ 10 nM	2130 nM	4940 nM	8260 nM	1580 nM	IC50 [21]: 138 nM; IC50 [22]: 263 nM; IC50 [23]: 1530 nM; IC50 [24]: 2080 nM; IC50 [25]: 756 nM; IC50 [26]: 341 nM; IC50 [27]: 1260 nM; IC50 [28]: 2310 nM; IC50 [29]: 8980 nM; IC50 [30]: ≤ 10 nM; IC50 [31]: 4550 nM; IC50 [32]: 349 nM; IC50 [33]: 1570 nM
